≈ marks a conversion by molar mass, not a printed value. Read-outs that look alike come from different tables or passages of the source.
Tests used:
[1] = test system: Bacillus subtilis (Bs); test: MIC against bacteria (nutrient agar); assay type: cell-based, Bacillus subtilis ATCC 8473; conditions: 30° C., 48 h, read-out: Minimum Inhibitory Concentration, Bs
[2] = test system: Enterobacter aerogenes (Ea); test: MIC against bacteria (nutrient agar); assay type: cell-based, Enterobacter aerogenes ATCC 13048; conditions: Klebsiella aerogenes, 30° C., 48 h, read-out: Minimum Inhibitory Concentration, Ea
[3] = test system: Escherichia coli (Ec); test: MIC against bacteria (nutrient agar); assay type: cell-based, Escherichia coli ATCC 11229; conditions: 30° C., 48 h, read-out: Minimum Inhibitory Concentration, Ec
[4] = test system: Klebsiella pneumoniae (Kp); test: MIC against bacteria (nutrient agar); assay type: cell-based, Klebsiella pneumoniae ATCC 8308; conditions: 30° C., 48 h, read-out: Minimum Inhibitory Concentration, Kp
[5] = test system: Proteus vulgaris (PV); test: MIC against bacteria (nutrient agar); assay type: cell-based, Proteus vulgaris ATCC 881; conditions: 30° C., 48 h, read-out: Minimum Inhibitory Concentration, Pv
[6] = test system: Psuedomonas aeruginosa (PRD-10); test: MIC against bacteria (nutrient agar); assay type: cell-based, Psuedomonas aeruginosa ATCC 15442; conditions: 30° C., 48 h, read-out: Minimum Inhibitory Concentration, PRD
[7] = test system: Psuedomonas aeruginosa (Pa); test: MIC against bacteria (nutrient agar); assay type: cell-based, Psuedomonas aeruginosa ATCC 10145; conditions: 30° C., 48 h, read-out: Minimum Inhibitory Concentration, Pa
Procedure: (§1) The antimicrobial activity of the compounds of the present invention is set forth as the minimum inhibitory concentration (MIC) for the active compounds and is determined for nine (9) bacteria, using nutrient agar, and seven (7) yeast and fungi, using malt yeast agar. This determination is conducted using a one percent solution of the test compound prepared in a mixture of acetone and water.
Nutrient agar is prepared at pH 6.8, representing a neutral medium, and at pH 8.2, representing an alkaline medium. The nutrient agars are prepared by adding 23 g of nutrient agar to one-liter of deionized water. In addition, the alkaline medium is prepared by adjusting a 0.04M solution of N-[tris-(hydroxymethyl)methyl]-glycine buffered deionized water with concentrated sodium hydroxide to a pH of 8.5.
(§2) The test tubes containing the agar are cooled in a water bath until the temperature of the agar is 48° C. Then, an appropriate amount of the one percent solution of the test compound is added (except in the controls where no compound is added) to the respective test tubes so that the final concentrations are 500, 250, 100, 50, 25, 10, 5, 2.5, 1.0 and zero parts per million of the test compound in the agar, thus having a known concentration of test compound dispersed therein. The contents of the test tubes are then transferred to respective petri plates. After drying for 24 hours, the petri plates containing nutrient agar are inoculated with bacteria and those containing malt yeast agar are inoculated with yeast and fungi.
The inoculation with bacteria is accomplished by using the following procedure. Twenty-four hour-cultures of each of the bacteria are prepared by incubating the respective bacteria in tubes containing nutrient broth for 24 hours at 30° C. in a shaker. Dilutions of each of the 24 hour-cultures are made so that nine separate suspensions (one for each of the nine test bacteria) are made, each containing 10^8 colony forming units (CFU) per mL of suspension of a particular bacteria. Aliquots of 0.3 mL of each of the bacterial suspensions are used to fill the individual wells of Steer's Replicator. For each microbial suspension, 0.3 mL was used to fill three wells (i.e., three wells of 0.3 mL each) so that for the nine different bacteria, 27 wells are filled. The Steer's Replicator is then used to inoculate both the neutral and alkaline pH nutrient agar petri plates.
The inoculated petri plates are incubated at 30° C. for 48 hours and then read to determine if the test compound which is incorporated into the agar prevented growth of the respective bacteria.
(§3) Table I lists the bacteria, yeast and fungi used in the MIC test described above along with their respective American Type Culture Collection (ATCC) identification numbers.

[8] = test system: Salmonella choleraesuis (Sc); test: MIC against bacteria (nutrient agar); assay type: cell-based, Salmonella choleraesuis ATCC 10708; conditions: Salmonella enterica, 30° C., 48 h, read-out: Minimum Inhibitory Concentration, Sc
[9] = test system: Staphylococcus aureus (Sa); test: MIC against bacteria (nutrient agar); assay type: cell-based, Staphylococcus aureus ATCC 6538; conditions: 30° C., 48 h, read-out: Minimum Inhibitory Concentration, Sa
[10] = test system: Aperigillus niger (An); test: MIC against yeast/fungi (malt yeast agar); assay type: cell-based, Aperigillus niger ATCC 16404; conditions: 30° C., fungi read after 72 h, read-out: Minimum Inhibitory Concentration, An
Procedure: as §1
(§4) Malt yeast agar is prepared by adding 3 g yeast extract and 45 g malt agar per liter of deionized water. The specific agar is dispensed in 30 mL aliquots into 25×200 mm test tubes, capped and autoclaved for 15 minutes at 115° C.
as §2
(§5) The inoculation with the yeast and fungi is accomplished as follows. Cultures of yeast and fungi are incubated for seven days on malt yeast agar at 30° C. These cultures are used to prepare suspensions by the following procedure. A suspension of each organism is prepared by adding 10 mL of sterile saline and 10 microliters of octylphenoxy polyethoxy ethanol to the agar slant of yeast or fungi. The sterile saline/octylphenoxy polyethoxy ethanol solution is then agitated with a sterile swab to suspend the microorganism grown on the slant. Each resulting suspension is diluted into sterile saline (1 part suspension to 9 parts sterile saline). Aliquots of these dilutions are placed in individual wells of Steer's Replicator and petri plates inoculated as previously described. The petri plates are incubated at 30° C. and read after 48 hours for yeast and 72 hours for fungi.
as §3

[11] = test system: Candida albicans (Ca); test: MIC against yeast/fungi (malt yeast agar); assay type: cell-based, Candida albicans ATCC 10231; conditions: 30° C., yeast read after 48 h, read-out: Minimum Inhibitory Concentration, Ca
Procedure: as §1, §4, §2, §5, §3

[12] = test system: Pencillium chrysogenum (Pc); test: MIC against yeast/fungi (malt yeast agar); assay type: cell-based, Pencillium chrysogenum ATCC 9480; conditions: 30° C., fungi read after 72 h, read-out: Minimum Inhibitory Concentration, Pc
Procedure: as §1, §4, §2, §5, §3

[13] = test system: Saccharomyces cerevisiae (Sc); test: MIC against yeast/fungi (malt yeast agar); assay type: cell-based, Saccharomyces cerevisiae ATCC 4105; conditions: 30° C., yeast read after 48 h, read-out: Minimum Inhibitory Concentration, Sc
Procedure: as §1, §4, §2, §5, §3

[14] = test system: Trichoderma viride (Tv); test: MIC against yeast/fungi (malt yeast agar); assay type: cell-based, Trichoderma viride ATCC 8678; conditions: 30° C., fungi read after 72 h, read-out: Minimum Inhibitory Concentration, Tv
Procedure: as §1, §4, §2, §5, §3

[15] = test system: Aureobasidium pullulan (Ap); test: MIC against yeast/fungi (malt yeast agar); assay type: cell-based, Aureobasidium pullulan ATCC 16622; conditions: 30° C., yeast 48 h / fungi 72 h, read-out: Minimum Inhibitory Concentration, Ap
Procedure: as §1, §4, §2, §5, §3

[16] = test system: Fusarium oxysporum (Fo); test: MIC against yeast/fungi (malt yeast agar); assay type: cell-based, Fusarium oxysporum ATCC 48112; conditions: 30° C., fungi read after 72 h, read-out: Minimum Inhibitory Concentration, Fo
Procedure: as §1, §4, §2, §5, §3

[17] = test system: marine organisms; test: Marine antifouling rating on test panels exposed to the marine environment
Procedure: Test panels are prepared from clear, rigid polyvinyl chloride film that is 0.381×10^-3 m thick and has one textured surface. The test panels are 0.1524 m by 0.1524 m squares that have 0.00635 m holes punched at corners on 0.127 m centers. A 0.102 square template, with a 0.067 m diameter hole at the center, is attached to the center of the textured surface of the test panels.
The candidate marine antifoulant compound (1.0 g) is stirred into a resinous latex binder (9.0 g). A portion of the compound/binder mixture (1.5 g) is added to the center of the test panel and uniformly spread over the circular area inside the template.
Water is added dropwise as needed to properly spread the compound/binder mixture. The template prevents the compound/binder mixture from spreading beyond the uncovered area. The test panel is allowed to sit for between 10 to 30 minutes until the edge of the spread compound/binder mixture has dried. The template is then removed. The test panel is then allowed to dry for 8 to 12 hours at room temperature.
Two test panels are prepared for each candidate marine antifoulant compound. Two control test panels are also prepared by only treating with the resinous latex binder. One test panel of each candidate marine antifoulant compound is attached over a white background to the topside of an exposure support apparatus. The second test panel is attached over a black background to the underside of the exposure support apparatus. The exposure support apparatus is placed horizontally 0.0254 m under a marine surface with the white background topside facing up. […]
After being removed from the exposure support apparatus, each test panel is inspected and rated for marine organism growth on both the treated and untreated areas of the test panel. The marine organisms present on the treated and untreated areas are noted. The presence of algae spores and bacterial slime are noted but not included in rating each test panel. The test panels are rated on a scale from 10 (representing completely free of marine organism growth) to 0 (representing completely covered with marine organism growth).
In Table IV, the marine antifouling rating values for ((4-phenyl-1,2,5-thiadiazol-3-yl)oxy)methyl ester is set forth, as well as the ratings for control panels (with no marine antifouling compound and referred to as "Control").

[18] = 16 weeks, scale 10 (completely free of growth) to 0 (completely covered), control --

## N#CSCOc1nsnc1-c1ccccc1 [Example I, ((4-Phenyl-1,2,5-thiadiazol-3-yl)oxy)methyl ester thiocyanic acid]
[1]; pH 6.8, nutrient agar
  MIC: < 10 µg/mL
[1]; pH 8.2, nutrient agar
  MIC: < 10 µg/mL
[2]; pH 6.8, nutrient agar
  MIC: > 500 µg/mL
[2]; pH 8.2, nutrient agar
  MIC: 500 µg/mL (≈ 2010 µM)
[3]; pH 6.8, nutrient agar
  MIC: 500 µg/mL (≈ 2010 µM)
[3]; pH 8.2, nutrient agar
  MIC: > 500 µg/mL
[4]; pH 6.8, nutrient agar
  MIC: 500 µg/mL (≈ 2010 µM)
[4]; pH 8.2, nutrient agar
  MIC: 500 µg/mL (≈ 2010 µM)
[5]; pH 6.8, nutrient agar
  MIC: > 500 µg/mL
[5]; pH 8.2, nutrient agar
  MIC: 500 µg/mL (≈ 2010 µM)
[6]; pH 6.8, nutrient agar
  MIC: > 500 µg/mL
[6]; pH 8.2, nutrient agar
  MIC: > 500 µg/mL
[7]; pH 6.8, nutrient agar
  MIC: > 500 µg/mL
[7]; pH 8.2, nutrient agar
  MIC: > 500 µg/mL
[8]; pH 6.8, nutrient agar
  MIC: 500 µg/mL (≈ 2010 µM)
[8]; pH 8.2, nutrient agar
  MIC: > 500 µg/mL
[9]; pH 6.8, nutrient agar
  MIC: 25 µg/mL (≈ 100 µM)
[9]; pH 8.2, nutrient agar
  MIC: 25 µg/mL (≈ 100 µM)
[10]
  MIC: < 1 µg/mL
[11]
  MIC: 2.5 µg/mL (≈ 10 µM)
[12]
  MIC: < 1 µg/mL
[13]
  MIC: 2.5 µg/mL (≈ 10 µM)
[14]
  MIC: 25 µg/mL (≈ 100 µM)
[15]
  MIC: < 1 µg/mL
[16]
  MIC: 5 µg/mL (≈ 20.1 µM)
[17]; 6 weeks, scale 10 (completely free of growth) to 0 (completely covered), control 0
  Marine Antifouling Rating, Bottom Panel: 9
[17]; 6 weeks, scale 10 (completely free of marine organism growth) to 0 (completely covered), control 6
  Marine Antifouling Rating, Top Panel: 8
[17]; 10 weeks, scale 10 (completely free of growth) to 0 (completely covered), control 0
  Marine Antifouling Rating, Bottom Panel: 7
[17]; 10 weeks, scale 10 (completely free of growth) to 0 (completely covered), control 3
  Marine Antifouling Rating, Top Panel: 3
[17]; [18]
  Marine Antifouling Rating, Bottom Panel: 2
  Marine Antifouling Rating, Top Panel: 8

## N#CSCOc1nsnc1-c1cccc(Cl)c1 [II, ((4-(3-Chlorophenyl)-1,2,5-thiadiazol-3-yl)oxy)methyl ester thiocyanic acid]
[1]; pH 6.8, nutrient agar
  MIC: < 10 µg/mL
[1]; pH 8.2, nutrient agar
  MIC: < 10 µg/mL
[2]; pH 6.8, nutrient agar
  MIC: > 500 µg/mL
[2]; pH 8.2, nutrient agar
  MIC: 500 µg/mL (≈ 1760 µM)
[3]; pH 6.8, nutrient agar
  MIC: 500 µg/mL (≈ 1760 µM)
[3]; pH 8.2, nutrient agar
  MIC: > 500 µg/mL
[4]; pH 6.8, nutrient agar
  MIC: 500 µg/mL (≈ 1760 µM)
[4]; pH 8.2, nutrient agar
  MIC: 500 µg/mL (≈ 1760 µM)
[5]; pH 6.8, nutrient agar
  MIC: > 500 µg/mL
[5]; pH 8.2, nutrient agar
  MIC: 500 µg/mL (≈ 1760 µM)
[6]; pH 6.8, nutrient agar
  MIC: > 500 µg/mL
[6]; pH 8.2, nutrient agar
  MIC: > 500 µg/mL
[7]; pH 6.8, nutrient agar
  MIC: > 500 µg/mL
[7]; pH 8.2, nutrient agar
  MIC: > 500 µg/mL
[8]; pH 6.8, nutrient agar
  MIC: 500 µg/mL (≈ 1760 µM)
[8]; pH 8.2, nutrient agar
  MIC: > 500 µg/mL
[9]; pH 6.8, nutrient agar
  MIC: < 10 µg/mL
[9]; pH 8.2, nutrient agar
  MIC: < 10 µg/mL
[10]
  MIC: 2.5 µg/mL (≈ 8.81 µM)
[11]
  MIC: 5 µg/mL (≈ 17.6 µM)
[12]
  MIC: < 1 µg/mL
[13]
  MIC: < 1 µg/mL
[14]
  MIC: 500 µg/mL (≈ 1760 µM)
[15]
  MIC: 2.5 µg/mL (≈ 8.81 µM)
[16]
  MIC: 10 µg/mL (≈ 35.2 µM)
